This note sets out measurements from PubChem BioAssay (NCI).

Test in all cases: inhibition of tumour cell growth, NCI panel, 48 h
Assay [1] relates to A549 NSCLC.
For assay [2], the system named is CCRF-CEM leukemia.
The subject of assay [3] is HCC-2998 colon.
In assay [4] the test system is HL-60(TB) leukemia.
The test system of assay [5] is HOP-92 NSCLC.
The test system of assay [6] is NCI-H226 lung.
For assay [7], the system named is NCI-H460 lung.
The test system of assay [8] is RXF 393 renal.
Assay [9] concerns SK-MEL-5 melanoma.
The test system of assay [10] is SNB-75 CNS.

“And” between values parts separate entries of the source, which are not always exact repeats. Equal values may be shown once.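 Each compound was tested at five concentrations against cells in 96-well plates for 48 hours. GI50: concentration for 50% inhibition of growth. TGI marks complete inhibition of growth.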 Where only a bound is given, the exact number is not on record here.

Take `Cn1c(/C(C#N)=C/c2ccc3ccccc3c2)cc2ccccc21`: the GI50 in assay [1] is 0.247 µM; in [2], 0.267 µM; in assay [3], 0.324 µM; in [4], 0.21 µM; in assay [5] it was 0.0395 µM; in [6], 0.662 µM. For the same compound, the GI50 is 0.201 µM in assay [7], 0.0507 µM in assay [8], 0.455 µM in assay [9] and 0.0628 µM in [10]. Moreover, the TGI was > 100 µM in assay [1]; > 100 µM in assay [2]; > 100 µM in [3]; 0.699 µM in assay [4]; > 100 µM in assay [5]; > 100 µM in assay [6]. In addition, the TGI in [7] is > 100 µM; in assay [8] it was 0.474 µM; in [9], > 100 µM; in assay [10] it was > 92.7 µM.

Consider `CCC(=C(c1ccc(OCCCN(C)C)cc1)c1ccc(OCCCN(C)C)cc1)c1ccc(Cl)cc1`, for which the GI50 in assay [1] is 0.601 µM; in [2], 0.392 µM; in [3], 0.51 µM; in assay [4], 0.372 µM; in assay [5] it was 0.945 µM; in assay [6], 2.65 µM. Moreover, the GI50 is 0.457 µM in assay [7], 0.977 µM in assay [8], 2.02 µM in assay [9] and 1.56 µM in assay [10]. Besides, the TGI came to 2.46 µM in assay [1]; 1.13 µM in assay [2]; 1.54 µM in assay [3]; 0.941 µM in [4]; 3.42 µM in assay [5]; 5.57 µM in [6]. The TGI in [7] was found to be 1.23 µM; in [8], 3.4 µM; in [9], 4.37 µM; in [10] it was 3.89 µM.

Take `CC(C)c1ccccc1NC(=O)/C(Cl)=C1/Sc2ccccc2NC1=O`: the TGI in assay [1] is > 100 µM; in [2], 82.8 µM; in assay [3], 93.3 µM; in [4], 52.6 µM; in [5], > 100 µM; in assay [6], > 100 µM. Also, the TGI was > 100 µM in [7], 49.6 µM in assay [8], 78.8 µM in [9] and 87.9 µM in assay [10].

Regarding `COCCOCCOCc1n(Cc2ccc3ccccc3n2)c2ccccc2[n+]1Cc1ccc2ccccc2c1`, the GI50 in assay [1] was 0.748 µM; in [2], 0.532 µM; in assay [3] it was 0.468 µM; in assay [4], 0.187 µM; in assay [5], 0.207 µM; in [6], 0.875 µM. The GI50 in [7] was 0.424 µM; in assay [8] it was 1.68 µM; in assay [9], 0.357 µM; in assay [10], 0.312 µM. Moreover, the TGI in [1] was found to be 10.6 µM; in assay [2] it was 2.45 µM; in [3] it was 2.04 µM; in assay [4] it was 0.476 µM; in assay [5], 0.718 µM; in [6], 4.83 µM. Also, the TGI in assay [7] came to 1.56 µM; in [8], 4.46 µM; in assay [9], 1.16 µM; in assay [10] it was 1.35 µM.

For `COc1ccc(Nc2nc3ccccc3nc2-c2cccs2)cc1`, the TGI in assay [1], in assay [2], in [3], in [4], in assay [5] and in [6] was > 100 µM in each case. Besides, the TGI in assay [7] was > 100 µM; in [8], > 100 µM; in assay [9], > 100 µM; in assay [10], 82.2 µM.

`O=C1C(Cl)=C(Nc2ccccc2)C(=O)c2ccccc21`: the GI50 in [1] was 15.5 µM; in assay [2] it was 2.37 µM; in assay [3] it was 2.15 µM; in assay [4], 1.77 µM; in assay [5] it was 1.28 µM; in [6] it was 2.18 µM. Further, the GI50 was 27.2 µM in assay [7], 1.6 µM in assay [8], 1.5 µM in [9] and 1.83 µM in assay [10]. In addition, the TGI in [1] was 42.2 µM; in assay [2] it was > 100 µM; in assay [3], 4.29 µM; in assay [4] it was 5.31 µM; in assay [5], 2.64 µM; in assay [6] it was 6.3 µM. Further, the TGI is > 100 µM in assay [7], 2.99 µM in [8], 2.89 µM in assay [9] and 12 µM in assay [10].

For the compound `Cc1ccc2c(c1)Sc1ccc(N=NN(C)C)cc1N2C`, the TGI in assay [1], in [2], in [3], in [4], in [5] and in assay [6] was > 100 µM throughout. Moreover, the TGI in [7], in assay [8], in assay [9] and in [10] was > 100 µM each time.

For `Cc1ccc2nc3c(Cl)c(C)c(=O)cc-3sc2c1`, the TGI in assay [1], in [2], in [3], in assay [4], in [5] and in [6] was > 100 µM in each case. The TGI in assay [7], in assay [8], in assay [9] and in [10] was > 100 µM throughout. Besides, the GI50 was 30.5 µM in assay [2]; > 100 µM in assay [3]; 60 µM in assay [6]; 50.3 µM in [7]; 31.6 µM in assay [10].

Take `O=c1c(Cl)c(Cl)cnn1CCc1ccncc1`: the TGI in assay [1] is > 100 µM; in assay [2], 88.8 µM; in [3], 27.9 µM; in assay [4], 87.1 µM; in [5], 38.5 µM; in assay [6], 84.1 µM. The TGI in assay [7] came to 37.8 µM; in assay [8] it was 42.2 µM; in [9] it was 30.4 µM; in assay [10] it was 33.2 µM.

Turning to `O=S(=O)(CCOCc1ccc(-c2ccc3ncnc(Nc4ccc(OCc5cccc(F)c5)c(Cl)c4)c3c2)o1)c1ccccc1`, the GI50 in assay [1], in [2], in assay [3], in assay [4], in assay [5] and in assay [6] was > 25 µM throughout. The GI50 in assay [7], in assay [8], in [9] and in [10] was > 25 µM throughout. Further, the TGI in assay [1], in assay [2], in assay [3], in [4], in assay [5] and in assay [6] was > 25 µM in each case. Besides, the TGI in assay [7], in assay [8], in assay [9] and in assay [10] was > 25 µM throughout.

On to `O=S1(=O)NCCCN1CCNc1nccc(-c2c(-c3cccc(O)c3)nc3sccn23)n1`, for which the GI50 in assay [1] is 42.5 µM; in [2], 13.5 µM; in assay [3], 31.3 µM; in assay [4], 23 µM; in assay [5], 27.3 µM; in [6], 18.9 µM. Moreover, the GI50 in assay [7] is 21.5 µM; in assay [8] it was 5.17 µM; in assay [9] it was 1.71 µM; in assay [10], 7.78 µM. In addition, the TGI in assay [1] was > 100 µM; in [2], > 100 µM; in [3], > 92 µM; in [4] it was 60 µM; in assay [5], > 93.5 µM; in [6], 73.9 µM. Also, the TGI in assay [7] was > 100 µM; in assay [8], 38.4 µM; in assay [9], 17.3 µM; in assay [10], > 100 µM.

As to `CC/C(=N\NS(=O)(=O)c1ccccc1)c1ccccc1`, the TGI in assay [1], in assay [2], in assay [3], in assay [4], in assay [5] and in assay [6] was > 100 µM each time. In addition, the TGI in assay [7], in [8], in assay [9] and in assay [10] was > 100 µM throughout.

For `C[n+]1c2ccccc2cc2c(CNC(CCCN=C(N)N)C(=O)O)cccc21` (stereo not drawn), the GI50 in [1] is 4.11 µM; in assay [3] it was 5.14 µM; in assay [4], 0.187 µM; in assay [5], 0.327 µM; in [6] it was 7.76 µM; in [7] it was 3.42 µM. Besides, the GI50 in assay [8] is 2.22 µM; in assay [9], 5.33 µM; in assay [10], 1.82 µM. The TGI in [1] was 14.6 µM; in assay [2] it was 0.555 µM; in assay [3], 5.67 µM and 16.7 µM; in [4], 0.488 µM and 0.882 µM; in assay [5], 0.991 µM; in [6], 7.63 µM and 35.8 µM. For the same compound, the TGI in assay [7] is 5 µM and 13.9 µM; in assay [8], 1.34 µM and 4.78 µM; in assay [9] it was 17.8 µM; in assay [10] it was 10.8 µM.

As to `Cc1ccccc1Nc1nc2c(s1)C(=O)c1ccccc1C2=O`, the TGI in assay [1] was 27.9 µM; in assay [2], > 37.5 µM; in assay [3] it was 32.2 µM; in assay [4], > 100 µM; in assay [5], 25.1 µM; in [6], 32.8 µM. The TGI in assay [7] came to 25.3 µM; in [8], 19.3 µM; in assay [9], 7.12 µM; in [10], 29.9 µM.

As to `CCCCCCCCCCCC[n+]1ccccc1` (tested in a mixture with another compound), the GI50 is 1.68 µM in [1]; 0.724 µM in [2]; 0.646 µM in [3]; 0.253 µM in assay [4]; 0.29 µM in assay [5]; 1.72 µM in assay [6]. Further, the GI50 is 1.33 µM in assay [7], 0.682 µM in [8], 0.342 µM in assay [9] and 1.08 µM in assay [10]. Also, the TGI in [1] worked out at 4.43 µM; in assay [2], 4.53 µM; in assay [3] it was 2.12 µM; in assay [4] it was 1.04 µM; in assay [5], 2.43 µM; in [6], 10.4 µM. Further, the TGI turned out to be 3.9 µM in assay [7], 4.44 µM in assay [8], 1.36 µM in assay [9] and 3.84 µM in assay [10].

Consider `NC(=O)C1(N2CCCCC2)CCN(CCCC(=O)c2ccc(F)cc2)CC1`, for which the GI50 in [1] is 10.4 µM; in [2], 0.121 µM; in assay [3], 1.78 µM; in [4], 0.801 µM; in [5], 0.17 µM; in [6] it was 2.34 µM. Besides, the GI50 in assay [7] is 2.7 µM; in assay [8], 2.32 µM; in [9] it was 0.158 µM; in [10], 0.147 µM. Further, the TGI was > 100 µM in assay [1]; 6.19 µM in assay [3]; 4.19 µM in [4]; 51.4 µM in assay [5]; 8.81 µM in assay [6]; > 100 µM in [7]. For the same compound, the TGI was 7.38 µM in [8], 12.6 µM in [9] and > 100 µM in assay [10].

Consider `CNC(=O)c1cc2c(Oc3ccc(NC(=O)C4(C(=O)Nc5ccc(F)cc5)CC4)cc3)ccnc2cc1OC`, for which the GI50 in assay [1] was 2.82 µM; in assay [2], 3 µM; in [3] it was 5.61 µM; in [4], 2.63 µM; in [5], 1.03 µM; in assay [6] it was 2.47 µM. Further, the GI50 in [7] was 3.88 µM; in assay [8], 1.58 µM; in assay [9] it was 2.37 µM; in [10] it was 0.0837 µM. The TGI in [1] was 16.9 µM; in assay [2], > 100 µM; in [3], > 100 µM; in assay [4] it was 6.63 µM; in assay [5], 4.75 µM; in assay [6], 10.7 µM. For the same compound, the TGI in assay [7] is > 100 µM; in assay [8], 3.53 µM; in assay [9] it was 6.51 µM; in assay [10], 2.74 µM.
